Test results from patent US6436999B1, “Diacyl-substituted guanidines, a process for their preparation, their use as medicine or diagnostic aid, and medicine containing them” (Hoechst Aktiengesellschaft, priority 1993, dated 2002).
Counter-ions that a name gives are not always drawn.

Assays:
[1] = biological target: T1, Na^+/H^+ exchanger of rabbit erythrocytes (Oryctolagus cuniculus, UniProt P23791); assay: Inhibition of the Na+/H+ exchanger of rabbit erythrocytes (amiloride-sensitive sodium influx, flame photometry); type: cell-based; details: hyperosmolar salt/sucrose medium, pH 7.4, 37° C., Na^+ influx by flame photometry
T1 construct: endogenous in cells; host or cells: erythrocytes in whole blood from cholesterol-fed New Zealand White rabbits
Text: New Zealand White rabbits (Ivanovas) were given a standard diet containing 2% cholesterol for six weeks in order to activate Na^+/H^+ exchange and thus to be able to use flame photometry to determine the Na^+ influx into the erythrocytes via Na^+/H^+ exchange. The blood was removed from the aural arteries and rendered incoagulable by the addition of 25 IU of potassium heparin per ml. One part of each sample was used for the duplicate determination of the hematocrit by centrifugation. Aliquots of in each case 100 μl were employed for measuring the initial content of Na^+ in the erythrocytes.
In order to determine the amiloride-sensitive sodium influx, 100 μl of each blood sample were in each case incubated, at pH 7.4 and 37° C., in 5 ml of a hyperosmolar salt/sucrose medium (mmol/l: 140 NaCl, 3 KCl, 150 sucrose, 0.1 ouabain, 20 tris(hydroxymethyl)aminomethane). The erythrocytes were then washed three times with ice cold MgCl2/ouabain solution (mmol/l: 112 MgCl2, 0.1 ouabain) and hemolyzed in 2.0 ml of distilled water. The intracellular content of sodium was determined by flame photometry.
The nett influx of Na^+ was calculated from the difference between the initial sodium values and the sodium content of the erythrocytes following incubation. The amiloride-inhibitable sodium influx was given by the difference in the sodium content of the erythrocytes following incubation with and without 3×10^−4 mol/l amiloride. The same procedure was also used in the case of the compounds according invention.

T1 sequence (P23791 whole entry): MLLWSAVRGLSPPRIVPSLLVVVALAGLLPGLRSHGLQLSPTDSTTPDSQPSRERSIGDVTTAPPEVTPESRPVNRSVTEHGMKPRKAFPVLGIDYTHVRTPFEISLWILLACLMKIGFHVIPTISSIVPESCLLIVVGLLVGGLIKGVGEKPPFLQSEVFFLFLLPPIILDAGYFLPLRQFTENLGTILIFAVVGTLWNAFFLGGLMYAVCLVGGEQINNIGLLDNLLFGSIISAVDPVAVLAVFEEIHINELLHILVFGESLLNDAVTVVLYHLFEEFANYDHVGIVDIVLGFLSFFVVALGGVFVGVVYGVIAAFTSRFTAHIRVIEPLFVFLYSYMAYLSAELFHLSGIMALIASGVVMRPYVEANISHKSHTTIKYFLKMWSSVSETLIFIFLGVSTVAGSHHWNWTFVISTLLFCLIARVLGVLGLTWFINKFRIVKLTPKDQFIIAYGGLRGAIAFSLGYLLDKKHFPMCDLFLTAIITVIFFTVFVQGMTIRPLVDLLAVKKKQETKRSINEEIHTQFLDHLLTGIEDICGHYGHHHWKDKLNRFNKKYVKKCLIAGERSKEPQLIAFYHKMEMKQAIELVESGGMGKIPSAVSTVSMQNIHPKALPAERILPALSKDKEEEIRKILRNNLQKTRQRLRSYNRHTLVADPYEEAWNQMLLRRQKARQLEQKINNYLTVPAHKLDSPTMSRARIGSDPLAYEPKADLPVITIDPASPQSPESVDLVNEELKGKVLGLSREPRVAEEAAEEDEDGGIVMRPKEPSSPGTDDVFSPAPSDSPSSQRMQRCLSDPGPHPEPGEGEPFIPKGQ

Question: For `N=C(NC(=O)C1CCc2ccccc2C1)NC(=O)C1CCc2ccccc2C1` (stereo not shown) [Example 5, N,N′-Bis(1,2,3,4-tetrahydronaphthalene-2-carbonyl)guanidide], which IC50 [1] is on record?
Answer: The IC50 was 0.3 µM.

Question: And the melting point?
Answer: The melting point was 99 °C.

Question: For `CC(Cc1cc(F)ccc1F)C(=O)NC(=N)NC(=O)C(C)Cc1cc(F)ccc1F` (stereo not shown) [Example 8, N,N′-Bis[3-(2,5-difluorophenyl)-2-methylpropionyl]guanidide], which IC50 [1] is on record?
Answer: Its IC50 is 0.3 µM.

Question: With `N=C(NC(=O)c1ccc(-n2ccnc2)c(C(F)(F)F)c1)NC(=O)c1ccc(-n2ccnc2)c(C(F)(F)F)c1` [Example 3, Bis[4-(l-imidazolyl)-3-trifluoromethylbenzoyl]guanidine] as the compound, how does the IC50 [1] read?
Answer: The IC50 was 5 µM.

Question: Which results are given for `N=C(NC(=O)c1ccc(F)c(C(F)(F)F)c1)NC(=O)c1ccc(F)c(C(F)(F)F)c1` [Example 2, Bis(4-fluoro-3-trifluoromethylbenzoyl)guanidine]?
Answer: IC50 [1]: 10 µM; melting point: 143 to 145 °C

Question: Which results are given for `Cl.N=C(NC(=O)c1ccc(F)c(C(F)(F)F)c1)NC(=O)c1ccc(-n2ccnc2)c(C(F)(F)F)c1` [Example 4, N-[4-(1-Imidazolyl)-3-trifluoromethylbenzoyl]-N′-(4-fluoro-3-trifluoromethylbenzoyl)guanidine Hydrochloride]?
Answer: IC50 [1]: 3 µM; melting point: 217 to 218 °C (dec.)

Question: For `N=C(NC(=O)CCc1ccccc1C(F)(F)F)NC(=O)CCc1ccccc1C(F)(F)F` [Example 7, N,N′-Bis[3-(2-trifluoromethylphenyl)propionyl]guanidide], which IC50 [1] is on record?
Answer: Its IC50 is 2 µM.

Question: With `N=C(NC(=O)CCc1ccccc1C(F)(F)F)NC(=O)CCc1ccccc1C(F)(F)F` (as salt: hydrochloride) [Example 7, N,N′-Bis[3-(2-trifluoromethylphenyl)propionyl]guanidide] as the compound, how does the melting point read?
Answer: The melting point was 75 °C.

Question: With `C/C(=C\c1ccccc1)C(=O)NC(=N)NC(=O)/C(C)=C/c1ccccc1` [Example 6, N,N′-Bis[(E)-2-methylcinnamoyl]guanidide] as the compound, how does the IC50 [1] read?
Answer: The IC50 was 1.1 µM.

Question: What does the source list for `CC(C)c1ccc(C(=O)NC(=N)NC(=O)c2ccc(C(C)C)c(S(C)(=O)=O)c2)cc1S(C)(=O)=O` [Example 1, Bis(3-methylsulfonyl-4-i-propylbenzoyl)guanidine]?
Answer: IC50 [1]: 10 µM; melting point: 218 to 221 °C
